Data taken from patent publication US20260297165A1, “COMPOSITIONS AND METHODS FOR EXPRESSING THERAPEUTICS” (priority 2023, published 2026).

Legend:
[1] = system: Hep1c1c7 cells; assay: Cell lysis inhibition assay (normal human serum, WST-8); type: cell-based; conditions: NHS dose causing 70% cell lysis
Procedure: To test biological function of sCD59, cell lysis inhibition assay was performed using Hep1c1c7 cells. The serum dose causing approximately 70% cell lysis was determined for the new normal human serum (NHS) before the purified sCD59 proteins were used for cell lysis inhibition assay. Three hours prior to the experiment, 1×10^4 cells per well were seeded onto a 96-well plate. Various doses of NHS were mixed with GVB2++ buffer (with Ca^2+ and Mg^2+) (Complement Technology, Cat. B100). 100 μL of mixture was added to each well. Background lysis was measured using GVB2++ buffer only and maximum lysis was measured by lysing all the cells with Maximum Lysis Buffer (GVB2++ plus 1% SDS). […] The absorbance at 450 nm was measured using a microplate reader. To calculate the percentage of live cells, the absorbance was subtracted by the Max Lysis, divided by Background Lysis minus Max Lysis and multiplied by 100, which equaled the % of live cells. The % of dead cells was calculated by subtracting 100 by the % of live cells. In the GraphPad Prism, the % of cell death was plotted against dose of NHS, and the dose of NHS causing 50% and 70% hemolysis was respectively determined (FIG. 15A). […]
To test biological function of vsCD59, cell lysis inhibition assay is performed using Hep1c1c7 cells. […] The absorbance at 450 nm is measured using a microplate reader. […]

[2] = target: C3b (Homo sapiens, UniProt P01024); assay: Binding affinity to C3b by Biacore
Procedure: (§1) The estimated IC50 of the C3i fusion proteins were measured as shown above. Next their binding affinity with Complement C3b, C3c, and C3 was tested. Binding affinity was measured using Biacore. Biosensor analysis was performed at room temperature in a running buffer (1×HBS, 20 mM NaH2PO4-Na2HPO4·H2O, 150 mM NaCl, pH 7.4, supplemented with 0.005% (v/v) surfactant P20), using a Biacore 3000 optical biosensor equipped with a research-grade CM5 sensor chip. C3, C3b and C3c proteins were immobilized in flow cell 2 or 4 via standard amine coupling, leaving Fc1 or 3 unmodified to serve as a reference surface. The immobilization levels of proteins were calculated using Rmax=100 RU and the ratio of ligand molecular weight/analyte molecular. Data analysis was conducted using the BIAevaluation software. All sensorgrams were double-referenced by subtracting the response on a reference flow cell and a blank sample. Five 2× serial dilution samples were injected sequentially from low concentration to high concentration of proteins at a flow rate of 30 μL/min (300 seconds for each), followed by a dissociation time of 900 seconds. Calculations of kinetic parameters were conducted assuming a simple 1:1 (Langmuir) binding.
(§2) After the testing concentrating was optimized for individual proteins, they were applied on the immobilized chip, and association rate constant (Ka, M^−1s^−1), dissociation constant (Kd, s^−1), equilibrium dissociation constant (KD, M), maximal feasible signal (Rmax), and chi^2 were recorded. The results for complement C3b, C3c, and C3 are listed in Table 22, Table 23, and Table 24, respectively. […] The estimated IC50 of C3i and its fusion proteins and their binding affinity (KD) against C3b, C3c, and C3 are shown in Table 25. When KD values were plotted against estimated IC50, they correlated well with each other for C3b (FIG. 23A) and C3c (FIG. 23B) and, in most cases, for C3 (FIG. 23C).

[3] = target: T1, C3c (Homo sapiens, UniProt P01024); assay: Binding affinity to C3c by Biacore
T1 construct: C3, C3b and C3c proteins were immobilized in flow cell 2 or 4

[4] = target: C3 (Homo sapiens, UniProt P01024); assay: Binding affinity to C3 by Biacore
Procedure: as §1, §2

[5] = system: rabbit erythrocytes; assay: Hemolysis inhibition assay with rabbit erythrocytes and normal human serum; type: cell-based
Procedure: In parallel, serum dose causing approximately 70% hemolysis was determined for new normal human serum (NHS) before the purified proteins were used for a hemolysis inhibition assay. Various doses of NHS were mixed with rabbit erythrocytes (Cat. B300, Complement Technology) in the presence of 0.1 M Mg2+ EGTA (Cat. B106, Complement Technology). Background lysis was measured using GVBE (GVBo plus 20 mM EDTA, pH 7.4), and maximum lysis was measured by lysing all the cells with Maximum Lysis Buffer (GVBo+0.2% NP40). After all the samples were mixed on ice, they were transferred to 37° C. water bath. The samples were vortexed every 5 minutes and incubated for 30 minutes in total. 1 mL of cold GVBE was added into each tube to stop the reaction. After samples were centrifuged for 3 min at approximately 1000× g to pellet cells, the supernatant was transferred to a cuvette and read at 412 nm in SpectaMax iD3 microplate reader. Each reading was normalized to the background, divided by Max Lysis minus background, and multiplied by 100, which equaled % of Max Lysis. Using the GraphPad Prism software, the % of Max Lysis was plotted against microliters of NHS, and the dose of NHS causing 50% and 70% hemolysis was respectively determined.
Using the NHS dose causing 70% hemolysis, the purified mutant proteins were utilized for a hemolysis inhibition assay. All mutant proteins were 2× serially diluted and mixed with the rabbit erythrocytes in the presence of NHS, resulting in the final concentration of […], 4.10, 2.05, and 1.02 μM of each mutant protein. The benchmark, CP40 peptide, was also used in this study. After each reading was subtracted from the background, it was divided by 70% hemolysis minus background and multiplied by 100. The value was considered as % of hemolysis inhibition. The percentage of hemolysis inhibition was plotted against the molecular concentration of mutant proteins by GraphPad Prism software and IC50 value was estimated based on the data plotting.

[6] = system: NIH-3T3 cells; assay: cGMP production in NIH-3T3 cells; type: cell-based

T1 sequence (P01024 23-667 limits assumed): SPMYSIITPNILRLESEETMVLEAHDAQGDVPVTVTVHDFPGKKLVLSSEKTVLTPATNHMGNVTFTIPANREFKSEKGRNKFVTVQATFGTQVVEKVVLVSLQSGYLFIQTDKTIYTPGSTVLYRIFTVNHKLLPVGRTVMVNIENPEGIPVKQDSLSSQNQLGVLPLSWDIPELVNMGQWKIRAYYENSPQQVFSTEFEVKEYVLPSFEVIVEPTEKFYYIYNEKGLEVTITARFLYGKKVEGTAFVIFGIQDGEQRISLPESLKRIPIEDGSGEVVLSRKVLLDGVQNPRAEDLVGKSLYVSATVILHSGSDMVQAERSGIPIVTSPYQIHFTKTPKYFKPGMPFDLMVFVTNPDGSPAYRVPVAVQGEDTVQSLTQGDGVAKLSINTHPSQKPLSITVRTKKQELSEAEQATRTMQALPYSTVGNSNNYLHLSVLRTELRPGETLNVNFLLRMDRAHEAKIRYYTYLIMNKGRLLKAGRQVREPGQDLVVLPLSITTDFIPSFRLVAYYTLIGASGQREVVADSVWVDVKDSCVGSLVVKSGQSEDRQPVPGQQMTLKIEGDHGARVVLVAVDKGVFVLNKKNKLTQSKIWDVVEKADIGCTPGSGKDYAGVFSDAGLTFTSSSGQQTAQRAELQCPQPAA
T1 sequence (P01024 749-954 partner limits assumed): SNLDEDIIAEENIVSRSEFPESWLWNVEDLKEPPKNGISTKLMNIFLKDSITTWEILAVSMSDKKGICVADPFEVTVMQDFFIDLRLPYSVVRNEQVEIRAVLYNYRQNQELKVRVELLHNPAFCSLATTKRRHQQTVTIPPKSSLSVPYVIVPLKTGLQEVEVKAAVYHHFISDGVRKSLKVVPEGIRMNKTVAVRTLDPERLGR
T1 sequence (P01024 1321-1663 partner limits assumed): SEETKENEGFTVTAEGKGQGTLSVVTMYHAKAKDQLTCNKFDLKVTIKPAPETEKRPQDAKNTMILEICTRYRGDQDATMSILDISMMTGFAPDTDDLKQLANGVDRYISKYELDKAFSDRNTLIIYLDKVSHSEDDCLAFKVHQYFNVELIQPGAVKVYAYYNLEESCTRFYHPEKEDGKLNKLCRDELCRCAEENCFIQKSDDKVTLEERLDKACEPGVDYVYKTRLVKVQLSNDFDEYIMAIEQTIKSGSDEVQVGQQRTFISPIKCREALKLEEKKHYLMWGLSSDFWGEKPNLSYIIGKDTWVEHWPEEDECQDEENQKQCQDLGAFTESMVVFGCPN
C3b, sequence (P01024 23-667 limits assumed): as the sequence (P01024 23-667 limits assumed) above
C3b, sequence (P01024 749-1663 partner limits assumed): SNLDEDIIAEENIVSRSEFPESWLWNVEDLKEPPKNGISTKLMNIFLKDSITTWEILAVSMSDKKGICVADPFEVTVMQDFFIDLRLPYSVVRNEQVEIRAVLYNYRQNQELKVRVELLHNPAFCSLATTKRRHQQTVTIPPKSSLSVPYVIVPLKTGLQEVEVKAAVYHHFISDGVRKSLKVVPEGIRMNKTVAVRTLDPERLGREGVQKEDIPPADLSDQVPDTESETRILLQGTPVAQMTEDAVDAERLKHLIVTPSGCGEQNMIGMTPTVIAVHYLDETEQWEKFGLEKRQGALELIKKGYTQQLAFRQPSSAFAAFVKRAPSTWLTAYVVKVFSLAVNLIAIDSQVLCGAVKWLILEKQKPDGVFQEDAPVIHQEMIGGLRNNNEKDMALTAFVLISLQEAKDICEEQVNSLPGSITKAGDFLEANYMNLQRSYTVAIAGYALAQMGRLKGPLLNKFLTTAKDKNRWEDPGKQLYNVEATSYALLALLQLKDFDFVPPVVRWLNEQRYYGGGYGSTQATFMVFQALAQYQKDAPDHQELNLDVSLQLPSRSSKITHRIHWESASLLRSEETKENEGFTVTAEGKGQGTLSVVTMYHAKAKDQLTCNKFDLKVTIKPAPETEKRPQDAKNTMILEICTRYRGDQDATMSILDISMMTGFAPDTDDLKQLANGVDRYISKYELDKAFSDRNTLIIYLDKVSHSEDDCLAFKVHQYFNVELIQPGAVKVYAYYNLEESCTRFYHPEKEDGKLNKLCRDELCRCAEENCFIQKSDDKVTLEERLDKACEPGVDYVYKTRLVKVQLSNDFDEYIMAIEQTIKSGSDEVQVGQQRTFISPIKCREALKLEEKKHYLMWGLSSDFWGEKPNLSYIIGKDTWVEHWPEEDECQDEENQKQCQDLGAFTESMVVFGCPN
C3, sequence (P01024 23-1663): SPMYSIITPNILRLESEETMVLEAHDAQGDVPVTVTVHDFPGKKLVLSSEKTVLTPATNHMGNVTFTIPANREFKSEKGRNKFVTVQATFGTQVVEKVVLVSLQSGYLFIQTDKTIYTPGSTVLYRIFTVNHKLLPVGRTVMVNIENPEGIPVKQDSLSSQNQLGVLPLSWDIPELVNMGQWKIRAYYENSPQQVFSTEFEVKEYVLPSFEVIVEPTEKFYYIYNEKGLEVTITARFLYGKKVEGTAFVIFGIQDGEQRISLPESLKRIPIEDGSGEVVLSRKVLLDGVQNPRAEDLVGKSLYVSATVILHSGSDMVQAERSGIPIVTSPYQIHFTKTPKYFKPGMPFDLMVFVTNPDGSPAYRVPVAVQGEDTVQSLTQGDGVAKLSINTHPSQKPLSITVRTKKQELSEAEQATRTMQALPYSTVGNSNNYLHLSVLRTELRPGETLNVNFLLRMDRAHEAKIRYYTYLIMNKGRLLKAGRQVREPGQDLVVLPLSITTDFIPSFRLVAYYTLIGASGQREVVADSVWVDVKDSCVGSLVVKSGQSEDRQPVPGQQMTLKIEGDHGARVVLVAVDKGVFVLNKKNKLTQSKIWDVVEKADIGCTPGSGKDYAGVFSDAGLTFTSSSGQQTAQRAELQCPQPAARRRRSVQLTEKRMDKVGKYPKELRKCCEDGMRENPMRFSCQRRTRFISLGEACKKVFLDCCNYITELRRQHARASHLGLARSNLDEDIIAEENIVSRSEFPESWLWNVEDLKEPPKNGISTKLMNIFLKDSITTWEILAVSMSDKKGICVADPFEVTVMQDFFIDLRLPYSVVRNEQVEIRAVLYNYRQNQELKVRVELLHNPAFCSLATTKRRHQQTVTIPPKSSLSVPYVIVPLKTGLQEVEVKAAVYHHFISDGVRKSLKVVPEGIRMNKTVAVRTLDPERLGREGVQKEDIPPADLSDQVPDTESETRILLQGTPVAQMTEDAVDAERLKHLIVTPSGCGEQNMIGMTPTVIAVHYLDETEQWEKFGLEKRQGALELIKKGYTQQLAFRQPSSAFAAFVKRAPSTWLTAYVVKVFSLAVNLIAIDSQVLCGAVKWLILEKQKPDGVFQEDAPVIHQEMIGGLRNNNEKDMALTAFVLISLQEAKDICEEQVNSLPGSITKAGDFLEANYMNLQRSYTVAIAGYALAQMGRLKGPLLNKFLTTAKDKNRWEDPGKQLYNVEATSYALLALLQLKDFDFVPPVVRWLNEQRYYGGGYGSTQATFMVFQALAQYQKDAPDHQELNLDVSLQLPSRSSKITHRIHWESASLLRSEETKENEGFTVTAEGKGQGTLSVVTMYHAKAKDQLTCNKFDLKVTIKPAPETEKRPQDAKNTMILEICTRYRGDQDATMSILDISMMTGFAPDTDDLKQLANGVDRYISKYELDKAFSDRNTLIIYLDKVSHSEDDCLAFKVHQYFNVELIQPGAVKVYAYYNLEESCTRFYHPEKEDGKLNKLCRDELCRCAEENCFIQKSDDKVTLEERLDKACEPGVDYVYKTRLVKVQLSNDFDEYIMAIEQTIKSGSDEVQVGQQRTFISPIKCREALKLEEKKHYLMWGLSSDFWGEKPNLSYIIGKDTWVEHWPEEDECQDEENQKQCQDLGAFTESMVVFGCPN

Kd ([2]; Affinity to C3b KD, C3b, Biacore, Table 25): 0.32 nM | Rmax (maximal feasible signal) ([2]; C3b immobilized): 3.18 | Chi^2 ([2]; C3b immobilized, fit): 0.12 | Kd ([2]; KD, C3b immobilized, 1:1 (Langmuir) binding): 0.324 nM | Kd [3]: 0.509 nM | Chi^2 ([3]; chi^2 of fit, C3c, Biacore): 0.05 | Rmax ([3]; maximal feasible signal, C3c, Biacore): 4.65 | Kd ([4]; Affinity to C3 KD, Table 25): 0.63 nM | Kd ([4]; KD, equilibrium dissociation constant, room temperature, pH 7.4): 0.629 nM | Chi^2 ([4]; chi^2 of fit): 0.10 | Rmax ([4]; maximal feasible signal): 25.70
SMILES: CC[C@H](C)[C@H](NC(=O)[C@H](N)Cc1ccc(O)cc1)C(=O)N[C@H]1CSSC[C@@H](C(=O)N(C)[C@H](C(N)=O)[C@@H](C)CC)NC(=O)[C@H](CCCNC(=N)N)NC(=O)[C@H](Cc2c[nH]cn2)NC(=O)[C@H](C)NC(=O)CN(C)C(=O)[C@H](Cc2c[nH]c3ccccc23)NC(=O)[C@H](CC(=O)O)NC(=O)[C@H](CCC(N)=O)NC(=O)[C@H](Cc2cn(C)c3ccccc23)NC(=O)[C@H](C(C)C)NC1=O [CP40]
cell lysis inhibition [1]: marginal inhibition | Estimated IC50 of hemolysis inhibition ([5]; NHS dose causing 70% hemolysis): 0.78 µM | Bioactivity IC50 Change ([5]; change of estimated IC50 relative to CP40): 1 fold | IC50 ([5]; estimated IC50, read-out: Bioactivity IC50): 780 nM | cGMP production [6]: not
